Test results taken from patent US11254700B2, “GSK-3β inhibitors and use thereof in methods of treatment” (UNIVERSITY OF HAWAII, priority 2017, dated 2022).
“Also recorded” adds a separate entry of the source.

What was measured:
Assay type in all cases: in vivo, mouse
[1] = tested on: Aβ42; test: Brain Aβ42 by ELISA; conditions: vs model group
Description: The backgrounds of all mice (APP/PS1 dual transgenic mice and wild-type mice with littermates) were C57/B6. Transgenic mice were randomly divided into three groups (n=20 for each group), and wild-type mice were used as controls (n=20). The control group and one group of transgenic mice (model group) were given sterilized ultrapure water, and the other two groups of transgenic mice received low- and high-dose Isoorientin (20 and 50 mg/kg, respectively) via intragastric administration for 60 days. Throughout the study-period, animals were housed in a controlled environment (temperature, 22° C.; humidity, 50-60%, 12-hour light/12-hour dark schedules), with free access to rodent chow and water. […] For quantitation purposes, a highly specific and sensitive mouse Aβ42 ELISA kit was used (Invitrogen Corporation, Carlsbad, Calif.). Brain tissue protein was extracted by homogenizing about 100 mg brain tissue with an 8-fold mass quantity of cold 5 M guanidine-HCl and 50 mM Tris (pH 8.0), and incubating the homogenate at room temperature for 3.5 hours. […] Soluble and insoluble brain samples including cortex and hippocampus were analyzed for Aβ levels using the mouse Aβ42 ELISA kit, according to the manufacturer's instructions. […] The obtained values were corrected for the wet weight of each brain sample and expressed as μg/mg brain.

[2] = tested on: IgG anti-Aβ42; test: Anti-Aβ immunoglobulin (IgG) in serum by ELISA; conditions: APP/PS1 mice, 60-day intragastric, vs model group
Description: The backgrounds of all mice (APP/PS1 dual transgenic mice and wild-type mice with littermates) were C57/B6. Transgenic mice were randomly divided into three groups (n=20 for each group), and wild-type mice were used as controls (n=20). The control group and one group of transgenic mice (model group) were given sterilized ultrapure water, and the other two groups of transgenic mice received low- and high-dose Isoorientin (20 and 50 mg/kg, respectively) via intragastric administration for 60 days. Throughout the study-period, animals were housed in a controlled environment (temperature, 22° C.; humidity, 50-60%, 12-hour light/12-hour dark schedules), with free access to rodent chow and water. After a Morris water maze test, mice were perfused with cold phosphate-buffered saline (PBS), brain tissues were dissected and kept frozen at −80° C. until further analysis. […] Blood was collected from mice. […] The anti-Aβ immunoglobulin (IgG) was measured using an enzyme-linked immunosorbent assay (ELISA) kit according to the manufacturer's protocol (see also, Song, et al. (2017) PLoS One 12(1):e0169509). […] The optical densities at 450 nm were analyzed using a microreader (TECAN, Switzerland) and linear regression was confirmed by ab126468, polyclonal anti-amyloid fibril antibody, as positive internal control. […]

[3] = tested on: Aβ plaques and Iba1-positive microglia; test: Immunofluorescence labeling (Aβ+IBA1); conditions: APP/PS1 mice
Description: The backgrounds of all mice (APP/PS1 dual transgenic mice and wild-type mice with littermates) were C57/B6. Transgenic mice were randomly divided into three groups (n=20 for each group), and wild-type mice were used as controls (n=20). The control group and one group of transgenic mice (model group) were given sterilized ultrapure water, and the other two groups of transgenic mice received low- and high-dose Isoorientin (20 and 50 mg/kg, respectively) via intragastric administration for 60 days. Throughout the study-period, animals were housed in a controlled environment (temperature, 22° C.; humidity, 50-60%, 12-hour light/12-hour dark schedules), with free access to rodent chow and water. After a Morris water maze test, mice were perfused with cold phosphate-buffered saline (PBS), brain tissues were dissected and kept frozen at −80° C. until further analysis. […] Double-labelling procedures were performed to determine the relationship between Iba1-positive and Aβ-positive plaques. […] Sections were then blocked with 5% BSA in 0.01% TRITON X-100 in TBS (TBST) for 1 hour at room temperature. […] Representative images were obtained by fluorescence microscope (Leica).

`O=c1cc(-c2ccc(O)c(O)c2)oc2cc(O)c([C@@H]3O[C@H](CO)[C@@H](O)[C@H](O)[C@H]3O)c(O)c12` [Compound 1, isoorientin] was tested, and the “Aβ42 in brain (cortex+hippocampus)” value ([1]; high-dose group 50 mg/kg, oral, 60 days) was “significantly lower; also recorded: significant decrease”, the “Aβ42 in brain (cortex+hippocampus)” value ([1]; low-dose group) was “no statistically significant difference” and the “IgG anti-Aβ42 in serum” value [2] was “decreased; also recorded: reduced”. For the same compound, the “Aβ plaques in cortex and hippocampus” value [3] was “reduced” and the “activated aggregated Iba1-positive cells around plaques” value [3] was “also reduced”.
